US20250230156A1, “CRYSTAL FORM OF ALLYL-CONTAINING METHYLPYRIDOPYRIMIDINE COMPOUND” (MEDSHINE DISCOVERY INC., priority 2022, published 2025)

How the values were obtained:
KRAS (G12C) and SOS1 = molecular target: T1, KRAS (G12C) and SOS1 (Homo sapiens, UniProt Q07889); experiment: KRAS (G12C) and SOS1 binding experiment (HTRF); details: SOS1 exchange domain (564-1049), 25° C. for 60 min, read-out: KRAS (G12C) and SOS1 binding inhibitory activity IC50
T1 sequence (Q07889 564-1049): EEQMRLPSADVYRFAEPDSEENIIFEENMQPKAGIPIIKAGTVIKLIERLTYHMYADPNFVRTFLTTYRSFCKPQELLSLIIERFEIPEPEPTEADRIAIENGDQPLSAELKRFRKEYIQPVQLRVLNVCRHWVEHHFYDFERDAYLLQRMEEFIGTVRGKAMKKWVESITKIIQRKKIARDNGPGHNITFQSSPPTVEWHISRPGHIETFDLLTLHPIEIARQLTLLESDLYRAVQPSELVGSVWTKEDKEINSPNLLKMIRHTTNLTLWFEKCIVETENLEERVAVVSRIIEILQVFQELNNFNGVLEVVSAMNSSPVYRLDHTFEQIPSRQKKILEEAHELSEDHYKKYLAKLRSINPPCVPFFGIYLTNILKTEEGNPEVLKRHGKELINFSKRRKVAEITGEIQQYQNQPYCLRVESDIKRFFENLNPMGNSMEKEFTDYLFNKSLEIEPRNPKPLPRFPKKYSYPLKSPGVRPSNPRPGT
Experimental: The multi-functional microplate reader Nivo5 was purchased from PerkinElmer.
Preparation method: 4-hydroxyethylpiperazine ethyl sulfonate (Hepes): 5 mM; sodium chloride (NaCl): 150 mM; ethylenediaminetetraacetic acid (EDTA): 10 mM, CO-630 (Igepal): 0.0025%, potassium fluoride (KF): 100 mM; dithiothreitol (DTT): 1 mM; and bovine serum albumin (BSA): 0.05%.
1) The test compound was diluted five-fold using DMSO with a multi-channel pipette until the 8th concentration was achieved, starting from 1 mM and ending at 0.064 μM.
2) The various gradients of the test compound were diluted with 1 buffer to form working solutions containing 2% DMSO. 5 μL of each working solution was then dispensed into the corresponding wells, with a concentration gradient ranging from 20 μM to 0.00128 nM. Duplicate well experiment was set up for each concentration. Following this, the plate was centrifuged at 1000 rpm for 1 min.
3) A mixed working solution containing KRAS (G12C) at a concentration of 200 nM and Mab Anti GST-Eu cryptate at a concentration of […] was prepared using 1× buffer. […]
4) A mixed working solution containing SOS1 at a concentration of 80 nM and Mab Anti 6HIS-XL665 at a concentration of […] was prepared using 1× buffer. […] After the reaction was completed, the HTRF was read using a multi-label analyzer. […]

[1] = tested on: p-ERK in DLD-1 cells (KRAS G13D mutation); experiment: pERK expression levels in DLD-1 cells using HTRF; type: cell-based; details: Homo sapiens, 1.5 h compound incubation, read-out: Inhibitory activity against p-ERK in DLD-1 cells IC50
Experimental: The phosphorylation level of ERK protein in DLD-1 cells with KRAS G13D mutation was detected by the Homogeneous Time-Resolved Fluorescence (HTRF) method, and the IC50 and IC90 values of compounds are employed as indicators to evaluate the inhibitory activity of these compounds towards ERK phosphorylation within the RAS signaling pathway.
1) DLD-1 cells (50,000 cells/well) were seeded into a 96-well plate, and each well was filled with 90 μL of RPMI-1640 medium (10% fetal bovine serum), and then placed in a 37° C., 5% carbon dioxide incubator for overnight culture.
10 μL of DMSO-cell culture medium mixture were added to the solvent control and positive control, with a final DMSO concentration of 0.25%. The 96-well cell plate was then returned to the incubator for 1.5 h of culture.
4) The cell supernatant was removed, and 50 μL of 1× lysis buffer was immediately added, followed by shaking and incubation at room temperature for 30 min.
5) A pipette was used to blow and mix the solution evenly, and 16 μL of cell lysate was transferred from the 96-well plate to the HTRF 384-well detection plate.
6) 4 μL of pre-mixed antibody solution were added, the plate was sealed, and incubated at 4° C. The fluorescence emission intensities at 665 nm and 620 nm were detected using an HTRF plate reader. […]

H358 cells = experiment: Anti-cell proliferation experiment of H358 cell 3D model (soft agar); type: cell-based; details: Homo sapiens, 336 h; NCI-H358, soft agar, 14 days co-incubation, Almar blue; read-out: Anti-proliferation inhibitory activity in H358 cell 3D model IC50
Experimental: RPMI1640 medium, fetal bovine serum, and penicillin/streptomycin antibiotics were purchased from Wisent, and low-melting agarose was purchased from Sigma. Almar blue reagent was purchased from Invitrogen. NCI-H358 cell line was purchased from Nanjing CoBioer Co., Ltd. Nivo multi-label analyzer (PerkinElmer).
H358 cells were seeded into a 96-well U-shaped plate. First, low-melting agarose was prepared into a 2% stock solution. Before use, the agarose stock solution was heated in a microwave oven to completely melt it, and then placed in a 42° C. water bath to keep the agarose in a liquid state. The gel was added to the serum-containing medium to prepare a gel with a concentration of 0.6% as the bottom layer gel, which was then dispensed into the 96-well U-shaped plate at 50 μL per well. After the bottom layer gel solidifies, 2% gel was added to the cell-containing medium to prepare a cell-containing top layer gel with a gel concentration of 0.4%. The cell density was […], and 75 μL was added to each well of the 96-well U-shaped plate with the bottom layer gel, resulting in a cell density of 3000 cells per well. […]
On the day of compound addition, 85 μL of liquid medium is added to the 96-well U-shaped plate with pre-seeded cells. […] The readings were taken using a multi-label analyzer. […]

## C=C[C@@H](Nc1nc(C)nc2cc(=O)n(C3(C(F)F)CC3)cc12)c1cccc(C(F)F)c1F [Compounds as shown in formula (I)]
KRAS (G12C) and SOS1
  IC50: 13 nM
[1]
  IC50: 37 nM
H358 cells
  IC50: 91 nM
